Results as given in patent US11208400B2, “Substituted 6-(1H-pyrazol-1-yl)pyrimidin-4-amine derivatives and uses thereof” (Bayer Aktiengesellschaft, priority 2016, dated 2021).

molecular target: T1, human Npt2a (Homo sapiens, UniProt Q06495); assay: Npt2a activity cell based assay, membrane potential dye, CHO T-REx hNpt2a cells; conditions: doxycycline-induced, depolarization by sodium phosphate influx, average or median values if tested more than once
T1 construct: expressed in transfected cells
T1 sequence (Q06495 1-639): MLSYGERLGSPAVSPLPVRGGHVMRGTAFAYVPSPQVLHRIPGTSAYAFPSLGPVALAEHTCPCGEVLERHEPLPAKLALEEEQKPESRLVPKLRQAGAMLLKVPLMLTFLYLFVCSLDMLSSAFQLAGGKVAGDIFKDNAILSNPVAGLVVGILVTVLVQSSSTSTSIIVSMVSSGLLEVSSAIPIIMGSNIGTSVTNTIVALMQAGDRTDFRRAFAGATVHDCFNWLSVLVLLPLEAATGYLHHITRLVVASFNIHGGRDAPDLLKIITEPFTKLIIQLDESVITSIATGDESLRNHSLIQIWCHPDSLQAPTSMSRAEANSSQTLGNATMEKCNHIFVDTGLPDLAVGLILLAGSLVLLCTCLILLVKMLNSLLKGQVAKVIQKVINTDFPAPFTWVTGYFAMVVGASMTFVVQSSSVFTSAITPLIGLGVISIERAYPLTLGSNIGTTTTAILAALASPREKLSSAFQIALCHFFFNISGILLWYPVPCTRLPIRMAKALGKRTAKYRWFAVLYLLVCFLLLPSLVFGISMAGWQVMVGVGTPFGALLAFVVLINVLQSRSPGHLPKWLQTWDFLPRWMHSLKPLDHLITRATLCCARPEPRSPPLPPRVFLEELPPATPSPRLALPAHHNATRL
In short: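 Cells were doxycycline-induced CHO T-REx hNpt2a, dye-loaded and pretreated 5 min at RT with 1 nM–50 μM compound in Na-free pH 7.4 buffer. IC50 was fit to the post/pre-trigger fluorescence ratio.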

Point of comparison: `CCc1c(-c2ccc(F)cc2)nn(C)c1Nc1cc(-n2nc(C)cc2C(C)(C)O)ncn1` [Example 264, 2-[1-(6-{[4-ethyl-3-(4-fluorophenyl)-1-methyl-1H-pyrazol-5-yl]amino}pyrimidin-4-yl)-3-methyl-1H-pyrazol-5-yl]propan-2-ol], IC50 500 nM. Against it:
- Cc1nn(-c2cc(Nc3c(C)c(-c4ccc(F)cc4)nn3CC3CC3)ncn2)c(C)c1OCC#N [Example 506, {[1-(6-{[1-(cyclopropylmethyl)-3-(4-fluorophenyl)-4-methyl-1H-pyrazol-5-yl]amino}pyrimidin-4-yl)-3,5-dimethyl-1H-pyrazol-4-yl]oxy}acetonitrile] — 18-fold lower, 28 nM
- Cc1nn(-c2cc(Nc3c(C)c(-c4ccc(F)cc4)nn3CC3CC3)ncn2)c(C)c1C(O)C(F)(F)F (single isomer, unassigned) [Example 375, 1-[1-(6-{[1-(cyclopropylmethyl)-3-(4-fluorophenyl)-4-methyl-1H-pyrazol-5-yl]amino}pyrimidin-4-yl)-3,5-dimethyl-1H-pyrazol-4-yl]-2,2,2-trifluoroethanol] — 12-fold lower, 40 nM
- Cc1nn(-c2cc(Nc3nn(CCC4CC4)c(-c4ccc(C#N)cc4)c3C)ncn2)c(C)c1Cl [Example 222, 4-[3-{[6-(4-chloro-3,5-dimethyl-1H-pyrazol-1-yl)pyrimidin-4-yl]amino}-1-(2-cyclopropylethyl)-4-methyl-1H-pyrazol-5-yl]benzonitrile] — 11-fold lower, 44 nM
- CCOC(=O)c1c(C)nn(-c2cc(Nc3c(C)c(-c4ccc(C#N)cc4)nn3C)ncn2)c1C [Example 213, ethyl 1-(6-{[3-(4-cyanophenyl)-1,4-dimethyl-1H-pyrazol-5-yl]amino}pyrimidin-4-yl)-3,5-dimethyl-1H-pyrazole-4-carboxylate] — 250-fold lower, 2 nM
- Cc1nn(-c2cc(Nc3c(C)c(-c4ccc(F)cc4)nn3CC3CC3)ncn2)c2c1C(O)(C(F)(F)F)CC2 (racemic) [Example 386, (±)-1-(6-{[1-(cyclopropylmethyl)-3-(4-fluorophenyl)-4-methyl-1H-pyrazol-5-yl]amino}pyrimidin-4-yl)-3-methyl-4-(trifluoromethyl)-1,4,5,6-tetrahydrocyclopenta[c]pyrazol-4-ol] — 42-fold lower, 12 nM
- COc1c(Nc2cc(-n3nc(C)c(CC(C)(C)O)c3C)ncn2)nn(C)c1-c1ccc(C#N)cc1 [Example 531, 4-[3-({6-[4-(2-hydroxy-2-methylpropyl)-3,5-dimethyl-1H-pyrazol-1-yl]pyrimidin-4-yl}amino)-4-methoxy-1-methyl-1H-pyrazol-5-yl]benzonitrile] — 3-fold higher, 1500 nM
- Cc1cc(C)n(-c2cc(Nc3c(C)c(-c4ccc(F)cn4)nn3C)ncn2)n1 [Example 467, 6-(3,5-dimethyl-1H-pyrazol-1-yl)-N-[3-(5-fluoropyridin-2-yl)-1,4-dimethyl-1H-pyrazol-5-yl]pyrimidin-4-amine] — 7.2-fold lower, 69 nM
- Cc1nn(-c2cc(Nc3c(Cl)c(-c4ccc(F)cc4F)nn3C)ncn2)c2ccccc12 [Example 49, N-[4-chloro-3-(2,4-difluorophenyl)-1-methyl-1H-pyrazol-5-yl]-6-(3-methyl-1H-indazol-1-yl)pyrimidin-4-amine] — 1.6-fold lower, 310 nM
- Cc1nn(-c2cc(Nc3c(C)c(-c4ccc(OC(F)F)cc4)nn3CC3CC3)ncn2)c(C)c1C#N [Example 477, 1-[6-({1-(cyclopropylmethyl)-3-[4-(difluoromethoxy)phenyl]-4-methyl-1H-pyrazol-5-yl}amino)pyrimidin-4-yl]-3,5-dimethyl-1H-pyrazole-4-carbonitrile] — 5.1-fold lower, 98 nM
- CCOC(=O)c1cc(C)nn1-c1cc(Nc2nn(C)c(-c3ccc(F)cc3)c2Cl)ncn1 [Example 447, ethyl 1-(6-{[4-chloro-5-(4-fluorophenyl)-1-methyl-1H-pyrazol-3-yl]amino}pyrimidin-4-yl)-3-methyl-1H-pyrazole-5-carboxylate] — within 1.5-fold, 560 nM
- CCc1c(Nc2cc(-n3nc(C)c(CO)c3C)ncn2)nn(C)c1-c1ccc(F)cc1 [Example 58, [1-(6-{[4-ethyl-5-(4-fluorophenyl)-1-methyl-1H-pyrazol-3-yl]amino}pyrimidin-4-yl)-3,5-dimethyl-1H-pyrazol-4-yl]methanol] — 1.5-fold higher, 760 nM
